# Data from ChEMBL document CHEMBL1142401, “QSAR modeling of the rodent carcinogenicity of nitrocompounds” (2008).
# Organism: Rattus norvegicus
# Experiment: Anticarcinogenic activity in rat assessed as induction of tumors per day
# Format: functional
Structure (SMILES),TD50,pTD50
O=[N+]([O-])c1ccc2c3c(cccc13)CC2,30.02 µmol/kg,1.48
Cc1ncc([N+](=O)[O-])n1CCO [METRONIDAZOLE],356.989 µmol/kg,2.553
CC(C)[N+](=O)[O-],3288.692 µmol/kg,3.517
O=[N+]([O-])c1ccccc1 [NITROBENZENE],47.681 µmol/kg,1.678
O=[N+]([O-])OCC(CO[N+](=O)[O-])O[N+](=O)[O-] [NITROGLYCERIN],1448.787 µmol/kg,3.161
CNc1ccc(N(CCO)CCO)cc1[N+](=O)[O-] [HC BLUE NO. 1],1680.55 µmol/kg,3.23
Nc1nc(N)nc(-c2ccc([N+](=O)[O-])o2)n1,7.697 µmol/kg,0.886
O=[N+]([O-])c1cccc2cccnc12,54.836 µmol/kg,1.739
CC1CN(/N=C/c2ccc([N+](=O)[O-])o2)C(=O)N1 (stereo not drawn) [NIFURIMIDE],22.418 µmol/kg,1.351
CC(=O)NCc1nc(-c2ccc([N+](=O)[O-])o2)no1,20.62 µmol/kg,1.314
COc1c(Cl)c(Cl)c([N+](=O)[O-])c(Cl)c1Cl,65.65 µmol/kg,1.82
Nc1ccc([N+](=O)[O-])cc1 [4-NITROANILINE],65.521 µmol/kg,1.816
Nc1ncc([N+](=O)[O-])s1,223.922 µmol/kg,2.35
O=C1CN(/N=C/c2ccc([N+](=O)[O-])o2)C(=O)N1 [NITROFURANTOIN],228.001 µmol/kg,2.358
CC(C)=NNc1nc(-c2ccc([N+](=O)[O-])o2)cs1,22.721 µmol/kg,1.356
CCCN(CCC)c1c([N+](=O)[O-])cc(C(F)(F)F)cc1[N+](=O)[O-] [TRIFLURALIN],17567.456 µmol/kg,4.245
Cn1cnc([N+](=O)[O-])c1Sc1ncnc2[nH]cnc12 [AZATHIOPRINE],36.428 µmol/kg,1.561
CN(C)C/N=c1\[nH]nc(/C=C/c2ccc([N+](=O)[O-])o2)o1,73.052 µmol/kg,1.864
O=CNNc1nc(-c2ccc([N+](=O)[O-])o2)cs1 [NIFURTHIAZOLE],13.925 µmol/kg,1.144
N/C(=N\O)c1ccc([N+](=O)[O-])o1,245.455 µmol/kg,2.39
Nc1nnc(-c2ccc([N+](=O)[O-])o2)s1,3.12 µmol/kg,0.494
Nc1nc(-c2ccc([N+](=O)[O-])o2)cs1,27.699 µmol/kg,1.442
COc1ccccc1[N+](=O)[O-] [2-NITROANISOLE],69.87 µmol/kg,1.84
O=[N+]([O-])c1ccc(-c2nnc(O)o2)o1,43.682 µmol/kg,1.64
CC(=O)Nc1nc(NC(C)=O)nc(-c2ccc([N+](=O)[O-])o2)n1,41.798 µmol/kg,1.621

Structure (SMILES),TD50,pTD50
CCNC(=O)Nc1ncc([N+](=O)[O-])s1 [NITHIAZIDE],605.88 µmol/kg,2.78
Nc1nnc(-c2ccc([N+](=O)[O-])o2)o1,13.971 µmol/kg,1.145
O=C1NC(c2ccc([N+](=O)[O-])s2)Nc2ccccc21 (stereo not drawn),5.558 µmol/kg,0.745
O=C1NCCN1/N=C/c1ccc([N+](=O)[O-])o1 [NIFURADENE],23.646 µmol/kg,1.37
CC(=O)Nc1nc(-c2ccc([N+](=O)[O-])o2)cs1,28.63 µmol/kg,1.457
O=CNc1nc(-c2ccc([N+](=O)[O-])o2)cs1,21.195 µmol/kg,1.326
CC(=O)Nc1nnc(-c2ccc([N+](=O)[O-])o2)s1,34.773 µmol/kg,1.541
NC(=O)N/N=C/c1ccc([N+](=O)[O-])o1 [NITROFURAZONE],32.907 µmol/kg,1.517
O=[N+]([O-])c1ccc(-c2nc(NCCO)c3ccccc3n2)s1,12.139 µmol/kg,1.084
NC(=O)/C(=C\c1ccc([N+](=O)[O-])o1)c1ccco1,45.932 µmol/kg,1.662
CC(=O)OC(OC(C)=O)c1ccc([N+](=O)[O-])o1,431.796 µmol/kg,2.635
Cc1ncc([N+](=O)[O-])n1C [DIMETRIDAZOLE],120.458 µmol/kg,2.081
O=[N+]([O-])c1ccc2ccc3cccc4ccc1c2c34 [1-NITROPYRENE],13.468 µmol/kg,1.129
Cc1cc(C)nc(-c2ccc([N+](=O)[O-])o2)n1,11.907 µmol/kg,1.076
O=[N+]([O-])c1ccc(-c2cnc3ccccn23)o1,68.938 µmol/kg,1.838
O=C(N[C@H](CO)[C@H](O)c1ccc([N+](=O)[O-])cc1)C(Cl)Cl [CHLORAMPHENICOL],860.336 µmol/kg,2.935
Cl.O=C1OC(CN2CCOCC2)CN1/N=C/c1ccc([N+](=O)[O-])o1 (stereo not drawn),8.665 µmol/kg,0.938
CC[N+](=O)[O-] [NITROETHANE],29174.093 µmol/kg,4.465
CC(C)(C)c1cc([N+](=O)[O-])cc([N+](=O)[O-])c1OS(C)(=O)=O,8.357 µmol/kg,0.922
NNc1nc(-c2ccc([N+](=O)[O-])o2)cs1,12.51 µmol/kg,1.097
CN(C)Nc1nc(-c2ccc([N+](=O)[O-])o2)cs1,1.538 µmol/kg,0.187
O=C(Nc1nc(-c2ccc([N+](=O)[O-])o2)cs1)C(F)(F)F,18.164 µmol/kg,1.259
O=[N+]([O-])c1ccc(-c2nc(N3CCOCC3)c3ccccc3n2)s1,14.692 µmol/kg,1.167
NNc1nc(-c2ccc([N+](=O)[O-])cc2)cs1,3.145 µmol/kg,0.498
